Experiments:
Format in all cases: in vivo
barley = assay: Post-emergence safener action in barley with the herbicide mesosulfuron-methyl; conditions: greenhouse, visual scoring of damage
From the text: (§1) The damage to the plants is scored visually using a scale of 0-100%, in comparison to control plants:
(§2) 0%=no noticeable effect compared to the untreated plant
(§3) 100%=the treated plants dies.
(§4) Seeds or rhizome pieces of monocotyledonous and dicotyledonous harmful plants and crop plants are placed in sandy loam soil in plastic pots, covered with soil and cultivated in the greenhouse under good growth conditions. Alternatively, harmful plants encountered in paddy rice cultivation are cultivated in pots in which the surface of the soil is covered by up to 2 cm of water. Three weeks after sowing, the test plants are treated at the three-leaf stage. The herbicide/safener active compound combinations according to the invention, formulated as emulsion concentrates, and in parallel tests the individual active compounds formulated in a corresponding manner, are sprayed at various dosages at a water application rate of […] (converted) onto the green parts of the plants, and, after the test plants were left to stand in the greenhouse for about 2 to 3 weeks under optimum growth conditions, the effect of the preparations is scored visually in comparison to untreated controls. In the case of rice or harmful plants encountered in the cultivation of rice, the active compounds are also added directly to the irrigation water (application analogously to the so-called granule application) or sprayed onto the plants and into the irrigation water. […]

corn [1] = assay: Pre-emergence safener action in corn with the herbicide isoxaflutol; conditions: greenhouse, visual scoring after 3 to 4 weeks
From the text: as §1, §2, §3
Seeds or rhizome pieces of monocotyledonous and dicotyledonous weed plants and crop plants were placed in sandy loam soil in plastic pots and covered with soil. The herbicide/safener active compound combinations according to the invention, formulated as suspension emulsion concentrates, and in parallel tests the individual active compounds formulated in a corresponding manner, were then, at various dosages at a water application rate of 600 to 800 l/ha (converted), applied to the surface of the covering soil.
After the treatment, the pots were placed in the greenhouse and kept under good growth conditions for the weeds and the crop plants. Visual scoring of the plant damage or emergence damage was carried out after the test plants had emerged after a test period of 3 to 4 weeks, in comparison to untreated controls.

corn [2] = assay: Post-emergence safener action in corn with the herbicide tembotrione; conditions: greenhouse, visual scoring of damage
From the text: as §1, §2, §3, §4

SMILES	safener action for the herbicide mesosulfuron-methyl (barley)	safener action in combination with the herbicide isoxaflutol (corn [1])	safener action for the herbicide tembotrione (corn [2])
CCNC(=O)c1ccc(C(F)(F)F)[nH]c1=O [Compound 2]	good safener action	good safener action	
O=C(NC1CCCCC1)c1ccc(C(F)(F)F)[nH]c1=O [Compound 19]		good safener action	
C#CCNC(=O)c1ccc(C(F)(F)F)[nH]c1=O [Compound 39]		good safener action	
COC(=O)CN(C)C(=O)c1ccc(C(F)(F)F)[nH]c1=O [Compound 72]		good safener action	
CC(C)(C)NC(=O)c1ccc(C(F)(F)Cl)[nH]c1=O [Compound 122]		good safener action	
CCC(C)NC(=O)c1ccc(C(F)(F)Cl)[nH]c1=O (stereo not shown) [Compound 155]	good safener action	good safener action	
CCOC(CNC(=O)c1ccc(C(F)(F)Cl)[nH]c1=O)OCC [Compound 169]	good safener action		good safener action
COCC(C)NC(=O)c1ccc(C(F)(F)Cl)[nH]c1=O (stereo not shown) [Compound 178]	good safener action		good safener action
CCONC(=O)c1ccc(C(F)(F)Cl)[nH]c1=O [Compound 193]	good safener action	good safener action	
CONC(=O)c1ccc(C(F)(F)Cl)[nH]c1=O [Compound 194]	good safener action	good safener action	
O=C(c1ccc(C(F)(F)Cl)[nH]c1=O)N1CCOCC1 [Compound 214]	good safener action		good safener action
O=C(c1ccc(C(F)(F)Cl)[nH]c1=O)N1CCCC1 [Compound 217]		good safener action	
CC(C)NC(=O)c1ccc(C(F)F)[nH]c1=O [Compound 232, 6-Difluoromethyl-N-isopropyl-2-oxo-1,2-dihydropyridine-3-carboxamide]		good safener action	
CCCC(C)NC(=O)c1ccc(C(F)F)[nH]c1=O (stereo not shown) [Compound 271]		good safener action	
NC(=O)c1ccc(C(F)(F)C(F)(F)F)[nH]c1=O [Compound 341, 2-Oxo-6-(pentafluoroethyl)-1,2-dihydropyridine-3-carboxamide]	good safener action	good safener action	good safener action
CC(C)NC(=O)c1ccc(C(F)(F)C(F)(F)F)[nH]c1=O [Compound 345]	good safener action		good safener action
C#CCNC(=O)c1ccc(C(F)(F)C(F)(F)F)[nH]c1=O [Compound 380]		good safener action	
CCC(CC)NC(=O)c1ccc(C(F)(F)C(F)(F)F)[nH]c1=O [Compound 392]	good safener action	good safener action	

SMILES	safener action for the herbicide mesosulfuron-methyl (barley)	safener action in combination with the herbicide isoxaflutol (corn [1])	safener action for the herbicide tembotrione (corn [2])
CCNC(=O)c1cc(Cl)c(C(F)(F)F)[nH]c1=O [Compound 457]	good safener action		good safener action
C=CCNC(=O)c1cc(Cl)c(C(F)(F)F)[nH]c1=O [Compound 489]	good safener action		good safener action
CCC(C)NC(=O)c1cc(Cl)c(C(F)(F)F)[nH]c1=O (stereo not shown) [Compound 496]	good safener action		good safener action
CCCC(C)NC(=O)c1cc(Cl)c(C(F)(F)F)[nH]c1=O (stereo not shown) [Compound 498]	good safener action		good safener action
NC(=O)c1cc(Br)c(C(F)(F)F)[nH]c1=O [Compound 909]	good safener action		good safener action
CCNC(=O)c1cc(Br)c(C(F)(F)F)[nH]c1=O [Compound 911]	good safener action		good safener action
CC(C)NC(=O)c1cc(Br)c(C(F)(F)F)[nH]c1=O [Compound 913]	good safener action		good safener action
C=CCNC(=O)c1cc(Br)c(C(F)(F)F)[nH]c1=O [Compound 943, N-Allyl-5-bromo-2-oxo-6-(trifluoromethyl)-1,2-dihydropyridine-3-carboxamide]	good safener action		good safener action
CCC(CC)NC(=O)c1cc(Br)c(C(F)(F)F)[nH]c1=O [Compound 960]	good safener action		good safener action
CCCNC(=O)c1cc(Br)c(C(F)(F)Cl)[nH]c1=O [Compound 1026]	good safener action		good safener action
CNC(=O)c1ccc(C(F)(F)C(F)F)[nH]c1=O [Compound 1368, N-Methyl-2-oxo-6-(1,1,2,2-tetrafluoroethyl)-1,2-dihydropyridine-3-carboxamide]		good safener action	good safener action
CCNC(=O)c1ccc(C(F)(F)C(F)(F)C(F)(F)F)[nH]c1=O [Compound 1597]		good safener action	good safener action
CCCNC(=O)c1ccc(C(F)(F)C(F)(F)C(F)(F)F)[nH]c1=O [Compound 1598, 6-(Heptafluoropropyl)-2-oxo-N-propyl-1,2-dihydropyridine-3-carboxamide]	good safener action		good safener action
CC(C)NC(=O)c1ccc(C(F)(F)C(F)(F)C(F)(F)F)[nH]c1=O [Compound 1599]	good safener action		good safener action
O=C(NC1CC1)c1ccc(C(F)(F)C(F)(F)C(F)(F)F)[nH]c1=O [Compound 1600]	good safener action		good safener action
CC(C)CNC(=O)c1ccc(C(F)(F)C(F)(F)C(F)(F)F)[nH]c1=O [Compound 1625]		good safener action	good safener action
CCC(C)NC(=O)c1ccc(C(F)(F)C(F)(F)C(F)(F)F)[nH]c1=O (stereo not shown) [Compound 1636]	good safener action	good safener action	good safener action
